Assay results: PubChem BioAssay (NCI)
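Results reflect a 48-hour exposure of cells in 96-well plates to compound at five concentrations. TGI is the concentration that stops growth completely.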

Legend:
Test in all cases: DTP human tumour cell line panel, 48 h
TK-10 renal = test system: TK-10 renal
SK-MEL-5 melanoma = test system: SK-MEL-5 melanoma
SR leukemia = test system: SR leukemia
M14 melanoma = test system: M14 melanoma
UACC-257 melanoma = test system: UACC-257 melanoma
DU-145 prostate = test system: DU-145 prostate
HL-60(TB) leukemia = test system: HL-60(TB) leukemia
A549 NSCLC = test system: A549 NSCLC
OVCAR-8 ovarian = test system: OVCAR-8 ovarian
PC-3 prostate = test system: PC-3 prostate
MCF7 breast = test system: MCF7 breast
IGROV1 ovarian = test system: IGROV1 ovarian

Structure (SMILES) | TGI (TK-10 renal) | TGI (SK-MEL-5 melanoma) | TGI (SR leukemia) | TGI (M14 melanoma) | TGI (UACC-257 melanoma) | TGI (DU-145 prostate) | TGI (HL-60(TB) leukemia) | TGI (A549 NSCLC) | TGI (OVCAR-8 ovarian) | TGI (PC-3 prostate) | TGI (MCF7 breast) | TGI (IGROV1 ovarian)
CC(=N/NC(=S)Nc1c(C)n(C)n(-c2ccccc2)c1=O)/C(C)=N\NC(=S)Nc1c(C)n(C)n(-c2ccccc2)c1=O | > 100 µM | > 100 µM | > 100 µM | > 100 µM | > 100 µM | > 100 µM | > 100 µM | > 100 µM | > 100 µM | > 100 µM |  | 
COc1ccc(C2SC(N)=Nc3c2c(C)nn3C(=O)c2ccc(Cl)cc2)cc1 (configuration not stated) | > 10 µM | > 10 µM |  | > 10 µM | > 10 µM | > 10 µM | > 10 µM | > 10 µM | > 10 µM | > 10 µM | > 10 µM | > 10 µM
COc1ccc(OC)c(NC(=O)C(=O)Nn2c(=S)[nH]c3ccccc3c2=O)c1 | > 100 µM | > 100 µM | > 100 µM | > 100 µM | > 100 µM |  | > 100 µM | > 100 µM | > 100 µM | > 100 µM | > 100 µM | > 100 µM
COc1cc(C)cc2c1C(=O)C(Br)=CC2=O | 5.9 µM | 25.1 µM |  | 14.1 µM | 26.7 µM | 32.4 µM |  | 43.4 µM | 15.2 µM | 31.3 µM | 21.6 µM | 31.7 µM
Cc1cn(CC2=NCC(C)(C)CN2)c(=O)[nH]c1=O | > 100 µM | > 100 µM |  | > 100 µM | > 100 µM | > 100 µM | > 100 µM | > 100 µM | > 100 µM | > 100 µM | > 100 µM | > 100 µM
C=C(C)[C@@H]1CC[C@@H](C)[C@](O)([C@@H]2C[C@@H]([C@H](COC(=O)c3ccccc3)OC(=O)c3ccccc3)OC2=O)C1 | > 100 µM | > 100 µM | > 100 µM | > 100 µM | > 100 µM | > 100 µM |  | > 100 µM | > 100 µM | > 100 µM | > 100 µM | > 100 µM
COC(=O)[C@H]1C=C[C@@H](C)n2c(=O)c3ccccc3c(=O)n21 | > 100 µM | > 100 µM | > 100 µM | > 100 µM | > 100 µM |  | > 100 µM | > 100 µM | > 100 µM |  |  | > 100 µM
CC(=O)c1c(O)ccc2c1CC(CC=O)O2 (configuration not stated) | > 100 µM | > 100 µM | > 100 µM | > 100 µM | > 100 µM |  | > 100 µM | > 100 µM | > 100 µM |  |  | > 100 µM
COc1cc2c(cc1OC)C1C(O)C(OC)C=C3CC[N+](C)(C2)C31 (configuration not stated) | > 100 µM | > 100 µM |  | > 100 µM | > 100 µM | > 100 µM | > 100 µM | > 100 µM | > 100 µM | > 100 µM | > 100 µM | > 100 µM
CN(C)c1ccc(/C=C2\N=C(N/N=C/c3ccccc3)NC2=O)cc1 | > 100 µM | > 100 µM |  | > 100 µM | > 100 µM | > 100 µM | > 100 µM | > 100 µM | 72.8 µM | > 100 µM | > 100 µM | > 100 µM
CN(C)CCCSc1c2ccccc2nc2cc(NCC(=O)Nc3ccccc3-c3ccccc3NC(=O)CNc3ccc4c(SCCCN(C)C)c5ccccc5nc4c3)ccc12 | > 100 µM | > 100 µM | > 100 µM | > 100 µM | > 100 µM |  | 50.3 µM | > 100 µM | > 100 µM |  |  | > 100 µM
NC(=O)C12C3C4C1C1C2C3C41C(N)=O (configuration not stated) | > 100 µM | > 100 µM |  | > 100 µM | > 100 µM |  | > 100 µM | > 100 µM | > 100 µM |  |  | > 100 µM
CCOc1ccc(N/C(=C(/C(Cl)=C(/Cl)NCCO)[N+](=O)[O-])n2nnc3ccccc32)cc1 |  |  |  | > 100 µM | > 100 µM | 36 µM |  | > 100 µM | 36.7 µM | 86.4 µM | 38.8 µM | 
NC(=O)C(=CN1C(=O)CC(=O)NC1=S)C(N)=O | > 100 µM | > 100 µM |  | > 100 µM | > 100 µM | > 100 µM | > 100 µM | > 100 µM | > 100 µM |  | > 100 µM | > 100 µM
COc1ccc(/C=C2\N=C(c3ccccc3)N(Nc3nnc(NN4C(=O)/C(=C/c5ccc(OC)cc5)N=C4c4ccccc4)c4ccccc34)C2=O)cc1 |  | > 100 µM | 90.5 µM | > 100 µM | > 100 µM |  | 61.4 µM | > 100 µM | > 100 µM |  |  | > 100 µM
Cc1[nH]n(-c2nc3c(c(=O)[nH]2)CCC3)c(=O)c1CCO | > 100 µM | > 100 µM |  | > 100 µM | > 100 µM | > 100 µM | > 100 µM | > 100 µM | > 100 µM | > 100 µM | > 100 µM | > 100 µM
Nc1nc(N)nc(-c2cnccn2)n1 | > 100 µM |  | > 100 µM | > 100 µM | > 100 µM | > 100 µM |  | > 100 µM | > 100 µM | > 100 µM | > 100 µM | > 100 µM
CO/C(=N\N=C\c1ccc(OC)cc1OC)c1ccncc1 | > 10 µM | > 10 µM | > 10 µM |  |  |  | > 10 µM | > 10 µM | > 10 µM | > 10 µM | > 10 µM | > 10 µM
Cn1c(=O)c2c(nc(C[N+]3([O-])CCOCC3)n2C)n(C)c1=O | > 100 µM | > 100 µM | > 100 µM | > 100 µM | > 100 µM |  | > 100 µM | > 100 µM | > 100 µM |  |  | > 100 µM
COc1ccc(-c2onc(-c3c(C)cc(C)cc3C)c2C2=NCCCN2)cc1 |  | 60.9 µM | > 100 µM | 40.8 µM | 70.1 µM |  | 38.6 µM | > 100 µM | > 100 µM |  |  | > 100 µM
O=C1Nc2ccccc2[C@]12C[C@H]2c1ccccn1 | > 100 µM | > 100 µM |  | > 100 µM | > 100 µM | > 100 µM |  | > 100 µM |  | > 100 µM | > 100 µM | > 100 µM
NC1=CC(C(=O)c2ccncc2)c2nc3ccccc3nc21 (configuration not stated) | > 100 µM | > 100 µM |  | > 100 µM | > 100 µM | > 100 µM |  | > 100 µM | > 100 µM | > 100 µM | > 100 µM | > 100 µM
